According to US20230126391A1, “ALPHA-METHYL-SUBSTITUTED DIAZABICYCLO[4.3.1] DECANE DERIVATIVES FOR TREATMENT OF PSYCHIATRIC DISORDERS” (priority 2020, published 2023):

Key:
[1] = target: T1, FKBP51FK1 (Homo sapiens, UniProt Q13451); assay: Binding affinity of ligands with large RA (E3-ligase CRBN, PEG linker)
T1 construct: FKBP51FK1
T1 sequence (Q13451 42-130 limits assumed): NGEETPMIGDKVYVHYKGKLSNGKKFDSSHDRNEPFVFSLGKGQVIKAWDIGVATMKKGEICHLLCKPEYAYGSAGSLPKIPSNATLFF
Source text: (§1) Further example of a diazabicyclo[4.3.1]decane with a large, bulky substituent in RA. The n corresponds to a varying PEG-linker length of 1-5. All tested ligands with a S-methyl group display increased binding affinity to the tested FKBPs while all R-isomers display decreased binding affinity as shown in the table below. In all cases, the addition of the methyl group in S-configuration increases the affinity to all measured FKBPs substantially.

[2] = target: T2, FKBP12 (Homo sapiens, UniProt P62942); assay: as above; conditions: * = detection limit
T2 sequence (P62942 whole entry): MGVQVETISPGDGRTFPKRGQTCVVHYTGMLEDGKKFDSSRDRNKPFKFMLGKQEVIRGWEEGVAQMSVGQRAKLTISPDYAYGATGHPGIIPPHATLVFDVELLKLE
Source text: as §1

[3] = target: T3, FKBP52FK1 (Homo sapiens, UniProt Q02790); assay: as above
T3 construct: FKBP52FK1
T3 sequence (Q02790 50-138 limits assumed): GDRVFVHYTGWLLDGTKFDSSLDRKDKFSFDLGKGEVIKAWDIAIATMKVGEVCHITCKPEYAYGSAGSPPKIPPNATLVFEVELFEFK
Source text: as §1

[4] = target: T4, FKBP12.6 (Homo sapiens, UniProt P68106); assay: as above; conditions: * = detection limit
T4 sequence (P68106 whole entry): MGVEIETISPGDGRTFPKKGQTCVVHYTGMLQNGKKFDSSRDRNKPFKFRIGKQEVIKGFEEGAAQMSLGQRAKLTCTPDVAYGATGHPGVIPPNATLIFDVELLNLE
Source text: as §1

[5] = target: LpMip (Legionella pneumophila subsp. pneumophila, UniProt Q5ZXE0); assay: biochemical; format: binding; conditions: read-out: Ki LpMip
Sequence of LpMip (Q5ZXE0 21-233 limits assumed): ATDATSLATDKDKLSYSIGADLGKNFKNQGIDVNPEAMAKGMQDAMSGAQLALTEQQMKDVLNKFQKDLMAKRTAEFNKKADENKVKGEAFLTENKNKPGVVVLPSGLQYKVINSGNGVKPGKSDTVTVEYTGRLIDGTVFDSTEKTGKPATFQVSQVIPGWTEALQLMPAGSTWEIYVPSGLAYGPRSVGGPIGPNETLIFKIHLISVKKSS

[6] = target: T5, FKBP52 (Homo sapiens, UniProt Q02790); assay: FP assay, binding to human FKBPs (Table 1); conditions: fluorescence polarization assay
T5 sequence (Q02790 1-459): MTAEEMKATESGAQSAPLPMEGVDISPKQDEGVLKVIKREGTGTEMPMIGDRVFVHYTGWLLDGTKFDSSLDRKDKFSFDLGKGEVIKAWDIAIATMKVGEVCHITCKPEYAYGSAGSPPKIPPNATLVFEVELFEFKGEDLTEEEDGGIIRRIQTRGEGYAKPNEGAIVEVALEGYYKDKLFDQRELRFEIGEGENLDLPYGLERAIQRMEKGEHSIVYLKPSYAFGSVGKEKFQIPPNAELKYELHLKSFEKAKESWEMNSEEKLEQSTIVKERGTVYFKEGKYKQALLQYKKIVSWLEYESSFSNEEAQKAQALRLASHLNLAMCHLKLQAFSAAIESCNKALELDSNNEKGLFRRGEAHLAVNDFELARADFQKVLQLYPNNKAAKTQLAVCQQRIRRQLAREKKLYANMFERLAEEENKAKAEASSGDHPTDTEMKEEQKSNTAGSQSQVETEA

[7] = target: T4, FKBP12.6; assay: FP assay, binding to human FKBPs (Table 1); conditions: fluorescence polarization assay
[8] = target: T6, FKBP51 (Homo sapiens, UniProt Q13451); assay: FP assay, binding to human FKBPs (Table 1); conditions: fluorescence polarization assay
T6 sequence (Q13451 1-457): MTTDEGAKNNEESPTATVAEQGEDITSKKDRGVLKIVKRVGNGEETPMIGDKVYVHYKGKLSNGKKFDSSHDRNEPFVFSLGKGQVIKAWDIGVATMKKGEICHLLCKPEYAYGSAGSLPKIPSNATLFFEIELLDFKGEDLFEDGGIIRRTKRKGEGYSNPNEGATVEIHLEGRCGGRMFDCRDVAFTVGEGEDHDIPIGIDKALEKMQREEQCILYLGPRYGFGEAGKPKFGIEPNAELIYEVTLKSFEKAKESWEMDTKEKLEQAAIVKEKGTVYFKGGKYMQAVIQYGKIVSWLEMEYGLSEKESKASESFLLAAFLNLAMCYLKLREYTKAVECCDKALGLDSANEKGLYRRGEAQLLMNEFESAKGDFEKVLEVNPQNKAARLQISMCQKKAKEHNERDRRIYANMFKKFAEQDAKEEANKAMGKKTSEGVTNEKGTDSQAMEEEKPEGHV

[9] = target: T2, FKBP12; assay: FP assay, binding to human FKBPs (Table 1); conditions: fluorescence polarization assay

| Compound | Ki [1] [nM] | Ki [2] [nM] | Ki [3] [nM] | Ki [4] [nM] | Ki [5] [nM] | Ki [6] [nM] | Ki [7] [nM] | Ki [8] [nM] | Ki [9] [nM] |
| --- | --- | --- | --- | --- | --- | --- | --- | --- | --- |
| C=C[C@H]1CN([C@@H](C)c2cn(CCOCC(=O)Nc3cccc4c3C(=O)N(C3CCC(=O)NC3=O)C4=O)nn2)C(=O)[C@@H]2CCC[C@H]1N2S(=O)(=O)c1cc(Cl)cc(Cl)c1 (stereo partly shown) [MTQ513] | 2.3 ± 0.4 | 0.2 ± 0.02 | 0.7 ± 0.3 | 0.41 ± 0.2 | – | – | – | – | – |
| C=C[C@H]1CN([C@@H](C)c2cn(CCOCCOCCOCC(=O)Nc3cccc4c3C(=O)N(C3CCC(=O)NC3=O)C4=O)nn2)C(=O)[C@@H]2CCC[C@H]1N2S(=O)(=O)c1cc(Cl)cc(Cl)c1 (stereo partly shown) [MTQ515] | 3.2 ± 0.9 | 0.5 ± 0.1 | 5 ± 1.2 | 4.8 ± 0.5 | – | – | – | – | – |
| C=C[C@H]1CN(Cc2cn(CCOCCOCCOCCOCC(=O)Nc3cccc4c3C(=O)N(C3CCC(=O)NC3=O)C4=O)nn2)C(=O)[C@@H]2CCC[C@H]1N2S(=O)(=O)c1cc(Cl)cc(Cl)c1 (stereo partly shown) [MTQ506] | 28 ± 5 | 1.5 ± 0.2 | 30 ± 8 | 19 ± 2 | – | – | – | – | – |
| C=C[C@H]1CN([C@@H](C)c2cn(CCOCCOCCOCCOCC(=O)Nc3cccc4c3C(=O)N(C3CCC(=O)NC3=O)C4=O)nn2)C(=O)[C@@H]2CCC[C@H]1N2S(=O)(=O)c1cc(Cl)cc(Cl)c1 (stereo partly shown) [MTQ516] | 4.2 ± 0.8 | 0.5 ± 0.1 | 8.4 ± 2.3 | 3.7 ± 0.5 | – | – | – | – | – |
| C=C[C@H]1CN(Cc2cn(CCOCCOCCOCCOCCOCC(=O)Nc3cccc4c3C(=O)N(C3CCC(=O)NC3=O)C4=O)nn2)C(=O)[C@@H]2CCC[C@H]1N2S(=O)(=O)c1cc(Cl)cc(Cl)c1 (stereo partly shown) [MTQ507] | 12 ± 2 | 0.7 ± 0.1 | 60 ± 12 | 10 ± 1.2 | – | – | – | – | – |
| C=C[C@H]1CN(Cc2cn(CCOCCOCC(=O)Nc3cccc4c3C(=O)N(C3CCC(=O)NC3=O)C4=O)nn2)C(=O)[C@@H]2CCC[C@H]1N2S(=O)(=O)c1cc(Cl)cc(Cl)c1 (stereo partly shown) [MTQ504] | 25 ± 6 | 2.1 ± 0.2 | 43 ± 11 | 17 ± 1.3 | – | – | – | – | – |
| C=C[C@H]1CN(Cc2ccccn2)C(=O)[C@@H]2CCC[C@H]1N2S(=O)(=O)c1cc(Cl)cc(Cl)c1 [6a] | – | – | – | – | 1350 | 54 | 17 | 119 | 1.3 |
| C=C[C@H]1CN(Cc2ccccn2)C(=O)[C@@H]2CCC[C@H]1N2S(=O)(=O)c1ccc2ncsc2c1 [7a] | – | – | – | – | 5840 | 276 | 6 | 294 | 7.5 |
| C=C[C@H]1CN(Cc2cn(CCOCCOCCOCC(=O)Nc3cccc4c3C(=O)N(C3CCC(=O)NC3=O)C4=O)nn2)C(=O)[C@@H]2CCC[C@H]1N2S(=O)(=O)c1cc(Cl)cc(Cl)c1 (stereo partly shown) [MTQ505] | 17 ± 4 | 2.4 ± 0.2 | 16 ± 5 | 21 ± 2 | – | – | – | – | – |
| COC[C@H]1CN(Cc2ccccn2)C(=O)[C@@H]2CCC[C@H]1N2S(=O)(=O)c1cc(Cl)cc(Cl)c1 [24a] | – | – | – | – | 497 | 11 | 3.4 | 12 | 0.65 |
| C=C[C@H]1CN([C@@H](C)c2cn(CCOCCOCC(=O)Nc3cccc4c3C(=O)N(C3CCC(=O)NC3=O)C4=O)nn2)C(=O)[C@@H]2CCC[C@H]1N2S(=O)(=O)c1cc(Cl)cc(Cl)c1 (stereo partly shown) [MTQ514] | 4.4 ± 1.2 | 0.4 ± 0.1 | 5.7 ± 1.7 | 2.4 ± 0.4 | – | – | – | – | – |
| C=C[C@H]1CN(Cc2cn(CCOCC(=O)Nc3cccc4c3C(=O)N(C3CCC(=O)NC3=O)C4=O)nn2)C(=O)[C@@H]2CCC[C@H]1N2S(=O)(=O)c1cc(Cl)cc(Cl)c1 (stereo partly shown) [MTQ503] | 8 ± 1 | 0.2 ± 0.03 | 1.9 ± 0.5 | 0.46 ± 0.1 | – | – | – | – | – |
| C=C[C@H]1CN([C@@H](C)c2cn(CCOCCOCCOCCOCCOCC(=O)Nc3cccc4c3C(=O)N(C3CCC(=O)NC3=O)C4=O)nn2)C(=O)[C@@H]2CCC[C@H]1N2S(=O)(=O)c1cc(Cl)cc(Cl)c1 (stereo partly shown) [MTQ517] | 2.1 ± 0.4 | 0.4 ± 0.05 | 4.9 ± 1.1 | 1.5 ± 0.3 | – | – | – | – | – |
